Measurements from patent publication US8835484B2, “Naphthocyanines for use as contrast agents” (Alamedics GmbH & Co. KG, priority 2010, dated 2014).

Columns and labels:
[1] = Solid cyanine dye stability comparison; format: physicochemical; details: storage
From the text: Decomposition of the solid dye results in a red coloration of the solid and the solution. Carboxylic acid esters, especially methyl ester, are particularly sensitive in addition to the bromides.

lens capsule = test: Dye tests on porcine eyes (lens capsule staining); design: key: +++: visually assessed very strong coloration; ++: good coloration; +: satisfactory coloration; −: weak or absent coloration; details: incubated, rinsed after one minute
Description: For the dye test, in each case 5 mg dye was dissolved in 500 μL ethanol and diluted to 2 mL with BSS Plus solution as the stock solution, and then correspondingly further diluted. As an alternative, one can prepare stock solutions of the dye by dissolving, for example, 5 mg dye in 1 mL distilled water, adding 7 mL BSS solution and then combining with 1 mL NaCl solution having an osmolality of 620 (approximately 2%) in order to restore the original osmolality of the BSS solution (308). This stock solution can be correspondingly further diluted with BSS solution as required. Enucleated porcine eyes were used having a post mortem time period of a few hours. To dye the lens capsule, the cornea was first removed. Thereafter, the iris was resected and the capsular support was severed. The lens with intact lens capsule was removed and placed in a bowl filled with BSS. The lenses were thereafter incubated with the dyes according to the invention at various concentrations and then rinsed after one minute. The dye pattern was photographically documented, whereby the coloration was assessed without additional illumination, and fluorescence was assessed with illumination (Xenon lamp, halogen lamp with typical endoillumination source and fiber optics). The lens capsule is a very good model for dyeing due to the fact that it is a basal membrane, as is the ILM of the retina. Both structures are important target structures in eye surgery.

[2] = Fluorescence quantum yield; format: physicochemical; details: CHCl3; Reference: S-13 with Φ=1.00
From the text: IR spectra: Perkin Elmer Spectrum BX II, using a diamond anvil cell; UV/Vis spectra: Varian Cary 5000 and Bruins Omega 20; fluorescence spectra: Varian Eclispe; NMR spectroscopy: Varian Vnmrs 600 (600 MHz, 400 MHz, 200 MHz); mass spectrometry: Thermo Finnigan LQT FT.

[3] = Solid cyanine dye stability comparison; format: physicochemical; details: after work-up, forming a yellow color
retina = details: cited from earlier work
[4] = tested on: internal limiting membrane (ILM); details: literature experiments; cited from earlier work

Row | Compound | Stability [1] | coloration of lens capsule (lens capsule; dye concentration 0.5%) | coloration of lens capsule (lens capsule; dye concentration 1.0) | Fluorescence quantum yield [2] | melting point | decomposition of the dye after preparation [3] | toxic effect on the retina (retina) | staining of the ILM [4]
1 | COC(=O)CCCCCCCCCCN1/C(=C\C=C\C2=[N+](CCCCCCCCCCC(=O)OC)c3ccc4c(S(=O)(=O)O)cccc4c3C2(C)C)C(C)(C)c2c1ccc1c(S(=O)(=O)O)cccc21.[Br-] [Dye 6d, 3,3′-Di-(10-methoxycarbonyldecyl)-1,1,1′,1′-tetramethyl-1H-disulfobenzo[e]indocarbocyanine bromide] | Decomposition after 1 month | decomposed | decomposed | 0.25 | > 150 °C (dec.) |  |  | 
2 | CCOC(=O)CCN1/C(=C\C=C\C2=[N+](CCC(=O)OCC)c3ccc4c(S(=O)(=O)O)cccc4c3C2(C)C)C(C)(C)c2c1ccc1c(S(=O)(=O)O)cccc21.[Br-] [Dye 6e, 3,3′-Di-(2-ethoxycarbonylethyl)-1,1,1′,1′-tetramethyl-1H-disulfobenzo[e]indocarbocyanine bromide] | Decomposition after 2 months | decomposed | decomposed | 0.18 | > 150 °C (dec.) |  |  | 
3 | CCOC(=O)CCCCN1/C(=C\C=C\C2=[N+](CCCCC(=O)OCC)c3ccc4c(S(=O)(=O)O)cccc4c3C2(C)C)C(C)(C)c2c1ccc1c(S(=O)(=O)O)cccc21.[Br-] [Dye 6f, 3,3′-Di-(4-ethoxycarbonylbutyl)-1,1,1′,1′-tetramethyl-1H-disulfobenzo[e]indocarbocyanine bromide] | Decomposition after 2 months | decomposed | decomposed | 0.11 | > 150 °C (dec.) | decomposes as soon as after one day |  | 
4 | CCOC(=O)CCCCCN1/C(=C\C=C\C2=[N+](CCCCCC(=O)OCC)c3ccc4c(S(=O)(=O)O)cccc4c3C2(C)C)C(C)(C)c2c1ccc1c(S(=O)(=O)O)cccc21.[Br-] [Dye 6g, 3,3′-Di-(5-ethoxycarbonylpentyl)-1,1,1′,1′-tetramethyl-1H-disulfobenzo[e]indocarbocyanine bromide] | No decomposition after 3 months | ++ | ++ | 0.22 | > 150 °C (dec.) |  |  | 
5 | CC1(C)C(/C=C/C=C/C=C/C=C2\N(CCCCS(=O)(=O)O)c3ccc4ccccc4c3C2(C)C)=[N+](CCCCS(=O)(=O)[O-])c2ccc3ccccc3c21 [ICG, indocyanine green] |  |  |  |  |  |  | toxic effect on the retina which is difficult to control | Selective staining
